Test results: PMC12522199 (RSC Advances, 2025)

Biological target: HamA (Burkholderia cenocepacia, UniProt A0A144VC93)
Experiment: microscale thermophoresis
Format: binding

O=C(O)CCC(=O)C(=O)O [2-oxoglutarate]
Kd: 208 ± 1.42 µM
